Data taken from patent US20130274127A1, “GENE EXPRESSION MARKERS FOR PREDICTION OF RESPONSE TO PHOSPHOINOSITIDE 3-KINASE INHIBITORS” (GENOMIC HEALTH, INC., priority 2012, published 2013).

Assays:
[1] = tested on: MDA-MB-231 tumor cell line; assay: siRNA knockdown and cell viability assay; format: cell-based, human
[2] = tested on: OVCAR-4 tumor cell line; assay: siRNA knockdown and cell viability assay; format: cell-based, human

Cn1c(=O)n(-c2ccc(C(C)(C)C#N)cc2)c2c3cc(-c4cnc5ccccc5c4)ccc3ncc21 [NVP-BEZ235]
Sensitivity to NVP-BEZ235 (cell viability) upon loss of OGT expression ([1]; OGT siRNA + 10 nM NVP-BEZ235): increased sensitivity | Sensitivity of cell line to NVP-BEZ235 ([1]; data not shown): resistant | Sensitivity to NVP-BEZ235 (cell viability) upon loss of OGT expression ([2]; OGT siRNA + 10 nM NVP-BEZ235): no effect | Sensitivity of cell line to NVP-BEZ235 ([2]; data not shown): highly NVP-BEZ235-resistant
